Test results published in patent US11780826B2 (Amgen Inc., priority 2017, dated 2023).

Tested on: Bovine cardiac myofibrils
Experiment: In vitro model of dose-dependent myofibril ATPase modulation (AC1.4, pyruvate kinase/lactate dehydrogenase-coupled ATPase assay at pCa25)
Type: biochemical
Settings: concentration at which ATPase activity was 1.4-fold higher than the bottom of the dose curve, mean of a minimum of two independent tests
Outline: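 Coupled-enzyme ATPase on bovine heart myofibrils, 1 mM ATP, EGTA/CaCl2 buffered; 340 nm readout.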

Row | Compound | AC1.4
1 | CN1CC(C(NC(=O)[C@H]2C[C@H]3C[C@H]3N2C(=O)c2cccc(S(C)(=O)=O)c2)c2ccc(C(F)(F)F)cc2F)CC1=O (stereo partly drawn) [Example 519, (1R,3R,5R)-N-((2-fluoro-4-(trifluoromethyl)phenyl)(1-methyl-5-oxopyrrolidin-3-yl)methyl)-2-(3-(methylsulfonyl)benzoyl)-2-azabicyclo[3.1.0]hexane-3-carboxamide] | 2.367 µM
2 | N#CC1CN(S(=O)(=O)N2CCC[C@H](C(=O)N3CCC[C@@H]3C(=O)NC(c3cc(F)ccc3F)C(F)F)C2)C1 (stereo partly drawn) [Example 524, (2R)-1-((S)-1-((3-cyanoazetidin-1-yl)sulfonyl)piperidine-3-carbonyl)-N-(1-(2,5-difluorophenyl)-2,2-difluoroethyl)pyrrolidine-2-carboxamide] | 2.583 µM
3 | O=C(N[C@@H](c1ccc(C(F)(F)F)cc1F)C1COC1)[C@H]1C[C@H]2C[C@H]2N1C(=O)c1cncc(C(F)(F)F)c1 [Example 527, (1R,3R,5R)-N-((R)-(2-fluoro-4-(trifluoromethyl)phenyl)(3-oxetanyl)methyl)-2-((5-(trifluoromethyl)-3-pyridinyl)carbonyl)-2-azabicyclo[3.1.0]hexane-3-carboxamide] | 2.5985 µM
4 | O=C(N[C@@H](c1cc(F)c(Cl)cc1F)C1COC1)[C@H]1C[C@H]2C[C@H]2N1C(=O)c1cccc(C(F)(F)F)n1 [Example 529, (1R,3R,5R)-N-((R)-(4-chloro-2,5-difluorophenyl)(3-oxetanyl)methyl)-2-((6-(trifluoromethyl)-2-pyridinyl)carbonyl)-2-azabicyclo[3.1.0]hexane-3-carboxamide] | 2.4895 µM
5 | O=C(N[C@@H](c1ccc(C(F)(F)F)cc1F)C1CC1)[C@H]1CCCN1C(=O)c1cccc(C2CCC2)c1 [Example 530, 1-(3-cyclobutylbenzoyl)-N-((R)-cyclopropyl(2-fluoro-4-(trifluoromethyl)phenyl)methyl)-D-prolinamide] | 2.614 µM
6 | NC(=O)C1(c2cccc(C(=O)N3CCC[C@@H]3C(=O)N[C@@H](c3ccc(C(F)(F)F)cc3F)C3CC3)c2)CC1 [Example 533, 1-(3-(1-carbamoylcyclopropyl)benzoyl)-N-((R)-cyclopropyl(2-fluoro-4-(trifluoromethyl)phenyl)methyl)-D-prolinamide] | 2.5883 µM
7 | C[C@@H](NC(=O)[C@H]1C[C@H]2C[C@H]2N1C(=O)c1cccc(S(C)(=O)=O)c1)c1cc(F)c(Cl)cc1F [Example 534, (1R,3R,5R)-N-((1R)-1-(4-chloro-2,5-difluorophenyl)ethyl)-2-(3-(methylsulfonyl)benzoyl)-2-azabicyclo[3.1.0]hexane-3-carboxamide] | 2.611 µM
8 | O=C(NCc1ccc(C(F)(F)F)cc1)[C@H]1CCCN1C(=O)[C@H]1CCCN(S(=O)(=O)N2CC(OC(F)(F)F)C2)C1 [Example 535, 1-(((3S)-1-((3-(trifluoromethoxy)-1-azetidinyl)sulfonyl)-3-piperidinyl)carbonyl)-N-(4-(trifluoromethyl)benzyl)-D-prolinamide] | 2.69 µM
9 | CCCCCOC1CN(S(=O)(=O)N2CCC[C@H](C(=O)N3CCC[C@@H]3C(=O)NCc3ccc(C(F)(F)F)cc3)C2)C1 [Example 536, 1-(((3S)-1-((3-(pentyloxy)-1-azetidinyl)sulfonyl)-3-piperidinyl)carbonyl)-N-(4-(trifluoromethyl)benzyl)-D-prolinamide] | 2.696 µM
10 | N#CC1CN(S(=O)(=O)N2CCC[C@@H](C(=O)N3CCC[C@@H]3C(=O)NCc3ccc(C(F)(F)F)cc3F)C2)C1 [Example 539, 1-(((3R)-1-((3-cyano-1-azetidinyl)sulfonyl)-3-piperidinyl)carbonyl)-N-(2-fluoro-4-(trifluoromethyl)benzyl)-D-prolinamide] | 2.753 µM
11 | C[C@@H](NC(=O)[C@H]1CCCN1C(=O)[C@H]1CCCN(S(=O)(=O)N2CC(C#N)C2)C1)c1ccc(C#N)cc1 [Example 540, 1-(((3S)-1-((3-cyano-1-azetidinyl)sulfonyl)-3-piperidinyl)carbonyl)-N-((1R)-1-(4-cyanophenyl)ethyl)-D-prolinamide] | 2.7885 µM
12 | Cc1cc(C(=O)N2[C@@H](C(=O)N[C@@H](c3ccc(C(F)(F)F)cc3F)C3COC3)C[C@H]3C[C@H]32)c(NCCO)cn1 [Example 541, (1R,3R,5R)-N-((R)-(2-fluoro-4-(trifluoromethyl)phenyl)(3-oxetanyl)methyl)-2-((5-((2-hydroxyethyl)amino)-2-methyl-4-pyridinyl)carbonyl)-2-azabicyclo[3.1.0]hexane-3-carboxamide] | 2.789 µM

Results, then the compound that gave them:

Row | AC1.4 | Compound
13 | 2.433 µM | N#CC1CN(S(=O)(=O)N2CCCC(F)(C(=O)N3CCC[C@@H]3C(=O)NCc3ccc(C(F)(F)F)cc3)C2)C1 (stereo partly drawn) [Example 514, (2R)-1-(1-((3-cyanoazetidin-1-yl)sulfonyl)-3-fluoropiperidine-3-carbonyl)-N-(4-(trifluoromethyl)benzyl)pyrrolidine-2-carboxamide]
14 | 2.441 µM | N#CC1CN(S(=O)(=O)N2CCC[C@H](C(=O)N3CCC[C@@H]3C(=O)NCc3ncc(C(F)(F)F)cc3F)C2)C1 [Example 515, 1-(((3S)-1-((3-cyano-1-azetidinyl)sulfonyl)-3-piperidinyl)carbonyl)-N-((3-fluoro-5-(trifluoromethyl)-2-pyridinyl)methyl)-D-prolinamide]
15 | 2.446 µM | N#CC1CN(S(=O)(=O)N2CCC[C@H](C(=O)N3CCC[C@@H]3C(=O)NCc3cccc(F)c3F)C2)C1 [Example 516, 1-(((3S)-1-((3-cyano-1-azetidinyl)sulfonyl)-3-piperidinyl)carbonyl)-N-(2,3-difluorobenzyl)-D-prolinamide]
16 | 2.4485 µM | N#CC1CN(S(=O)(=O)N2CCO[C@H](C(=O)N3CCC[C@@H]3C(=O)NCc3cc(F)cc(F)c3)C2)C1 [Example 517, 1-(((2S)-4-((3-cyano-1-azetidinyl)sulfonyl)-2-morpholinyl)carbonyl)-N-(3,5-difluorobenzyl)-D-prolinamide]
17 | 2.457 µM | COC(=O)C1CC(S(=O)(=O)N2CCC[C@H](C(=O)N3CCC[C@@H]3C(=O)NCc3ccc(C(F)(F)F)cc3)C2)C1 (stereo partly drawn) [Example 518, methyl3-(((S)-3-((R)-2-((4-(trifluoromethyl)benzyl)carbamoyl)pyrrolidine-1-carbonyl)piperidin-1-yl)sulfonyl)cyclobutanecarboxylate]
18 | 2.5075 µM | Cc1ccc(CNC(=O)[C@H]2CCCN2C(=O)c2cccc(S(=O)(=O)N3CC(C#N)C3)c2)nc1 [Example 520, 1-(3-((3-cyano-1-azetidinyl)sulfonyl)benzoyl)-N-((5-methyl-2-pyridinyl)methyl)-D-prolinamide]
19 | 2.551 µM | CCNc1ccccc1C(=O)N1CCC[C@@H]1C(=O)N[C@@H](c1ccc(C(F)(F)F)cc1F)C1CC1 [Example 521, N-((R)-cyclopropyl(2-fluoro-4-(trifluoromethyl)phenyl)methyl)-1-(2-(ethylamino)benzoyl)-D-prolinamide]
20 | 2.4145 µM | CCS(=O)(=O)c1cccc(C(=O)N2[C@@H](C(=O)N[C@@H](c3ccc(C(F)(F)F)cc3)C3(O)CCC3)C[C@H]3C[C@H]32)c1 [Example 522, (1R,3R,5R)-2-(3-(ethylsulfonyl)benzoyl)-N-((S)-(1-hydroxycyclobutyl)(4-(trifluoromethyl)phenyl)methyl)-2-azabicyclo[3.1.0]hexane-3-carboxamide]
21 | 2.582 µM | O=C(N[C@@H](c1ccc(C(F)(F)F)cc1F)C1CC1)[C@H]1CCCN1C(=O)c1cccc(C(O)(O)C(F)(F)F)c1 [Example 523, (R)—N—((R)-cyclopropyl(2-fluoro-4-(trifluoromethyl)phenyl)methyl)-1-(3-(2,2,2-trifluoro-1,1-dihydroxyethyl)benzoyl)pyrrolidine-2-carboxamide]
22 | 2.4285 µM | CS(=O)(=O)c1cccc(C(=O)N2CCC(F)(F)CC2C(=O)N[C@@H](c2ccc(C(F)(F)F)cc2F)C2CC2)c1 (stereo partly drawn) [Example 525, N-((R)-cyclopropyl(2-fluoro-4-(trifluoromethyl)phenyl)methyl)-4,4-difluoro-1-(3-(methylsulfonyl)benzoyl)piperidine-2-carboxamide]
23 | 2.5923 µM | CS(=O)(=O)c1ccnc(C(=O)N2CCC[C@@H]2C(=O)N[C@@H](c2ccc(C(F)(F)F)cc2F)C2CC2)c1 [Example 526, N-((R)-cyclopropyl(2-fluoro-4-(trifluoromethyl)phenyl)methyl)-1-((4-(methylsulfonyl)-2-pyridinyl)carbonyl)-D-prolinamide]
24 | 2.4294 µM | CS(=O)(=O)c1cccc(C(=O)N2C[C@@H](F)C[C@@H]2C(=O)N[C@@H](c2ccc(C(F)(F)F)cc2F)C2COC2)c1 [Example 528, (4S)-4-fluoro-N-((R)-(2-fluoro-4-(trifluoromethyl)phenyl)(3-oxetanyl)methyl)-1-(3-(methylsulfonyl)benzoyl)-D-prolinamide]
25 | 2.553 µM | NS(=O)(=O)c1cccc(C(=O)N2C[C@@H](F)C[C@@H]2C(=O)N[C@@H](c2ccc(C(F)(F)F)cc2F)C2CC2)c1 [Example 531, (4S)-N-((R)-cyclopropyl(2-fluoro-4-(trifluoromethyl)phenyl)methyl)-4-fluoro-1-(3-sulfamoylbenzoyl)-D-prolinamide]
26 | 2.6285 µM | N#CC1CN(S(=O)(=O)N2CCC[C@H](C(=O)N3CCC[C@@H]3C(=O)NCc3cc(Cl)cc(C(F)(F)F)c3)C2)C1 [Example 532, N-(3-chloro-5-(trifluoromethyl)benzyl)-1-(((3S)-1-((3-cyano-1-azetidinyl)sulfonyl)-3-piperidinyl)carbonyl)-D-prolinamide]
27 | 2.7025 µM | O=C(NCc1ccc(C(F)(F)F)cc1)[C@H]1COCCN1C(=O)c1cccc(S(=O)(=O)N2CC3(CC3)C2)c1 [Example 537, (R)-4-(3-((5-azaspiro[2.3]hexan-5-yl)sulfonyl)benzoyl)-N-(4-(trifluoromethyl)benzyl)morpholine-3-carboxamide]
